# Calls of active or inactive are those of the source. The rule behind the calls is not given here.
# Assays:
# [1] = system: HaCaT; assay: Cytotoxicity against human HaCaT cells assessed as reduction in cell viability at 5 uM after 24 hrs by MTT assay; type: toxicity, cell-based
# [2] = system: HaCaT; assay: Inhibition of TNF-alpha-induced NFkappaB (unknown origin) transcription in human HaCaT cells transiently transfected with NFkappaB-LUC at 5 uM after 6 hrs by luminescence based spectrophotometric assay; type: cell-based
# [3] = system: HaCaT; assay: Antiinflammatory activity against human HaCaT cells assessed as inhibition of TNF-alpha-induced IL-8 protein expression after 6 hrs by ELISA; type: functional, cell-based
# [4] = Inhibition of TNF-alpha-induced NFkappaB (unknown origin) transcription in human HaCaT cells transiently transfected with NFkappaB-LUC after 6 hrs by luminescence based spectrophotometric assay; type: cell-based
# [5] = system: HaCaT; assay: Antiinflammatory activity against human HaCaT cells assessed as inhibition of TNF-alpha-induced IL-8 protein expression at 5 uM after 6 hrs by ELISA relative to control; type: functional
SMILES,Activity [1],inhibition [2],IC50 [3],IC50 [4],inhibition at 5 µM [5],inhibition [5]
CCCCc1cc(O)c2c(c1)O[C@](C)(CCC=C(C)C)CC2,Non-Toxic,100%,1060 nM,3110 nM,100%,–
CCCc1cc(O)c(C/C=C(/C)CCC=C(C)C)c(O)c1,Non-Toxic,Active,–,–,–,inactive
CCCCc1cc2c(c(O)c1C(=O)O)CC[C@@](C)(CCC=C(C)C)O2,Non-Toxic,Active,–,–,–,inactive
CCCc1cc2c3c(c1)O[C@@]1(C)CCC([C@@H]3C1)C(C)(C)O2 (some centres not stated),Non-Toxic,inactive,–,–,–,inactive
CCCCc1cc(O)c(C/C=C(/C)CCC=C(C)C)c(O)c1,Non-Toxic,100%,870 nM,2800 nM,100%,–
CCCCc1cc2c(c(O)c1C(=O)OC)CC[C@@](C)(CCC=C(C)C)O2,Non-Toxic,Active,1580 nM,4230 nM,100%,–
CCCCCc1cc(O)c(C/C=C(\C)CCC=C(C)C)c(O)c1 [CANNABIGEROL],–,–,> 5000 nM,2510 nM,~40%,–
C=C(C)[C@@H]1CCC(C)=C[C@H]1c1c(O)cc(CCCCC)cc1O,–,–,–,–,–,inactive
CCCCc1cc(O)c(C/C=C(\C)CCC=C(C)C)c(O)c1C(=O)OC,Non-Toxic,100%,530 nM,600 nM,100%,–
CCCc1cc(O)c(C/C=C(\C)CCC=C(C)C)c(O)c1,Non-Toxic,Active,–,–,–,inactive
CCCCc1cc2c3c(c1)O[C@@]1(C)CCC([C@@H]3C1)C(C)(C)O2 (some centres not stated),Non-Toxic,inactive,–,–,–,inactive
CCCc1cc(O)c2c(c1)O[C@](C)(CCC=C(C)C)CC2,Non-Toxic,Active,–,–,–,inactive
CCCCc1cc(O)c(C/C=C(\C)CCC=C(C)C)c(O)c1,Non-Toxic,100%,820 nM,2360 nM,100%,–

# Reference: ChEMBL document CHEMBL5576082, “Minor Cannabinoids as Inhibitors of Skin Inflammation: Chemical Synthesis and Biological Evaluation” (J Nat Prod, 2024)
